From patent US8883859B1, “Viral inhibitor compositions for in vivo therapeutic use comprising a combination of (-) -carvone, geraniol and a further essential oil component” (Cesa Alliance S.A., priority 2010, dated 2014)

Assays:
[1] = system: human DNA viruses (HSV, ADV) and RNA viruses (CVB1, EV71); settings: each component used alone; cited from earlier work
[2] = system: adenovirus type 6; settings: in vitro; cited from earlier work
[3] = system: Human Papilloma Virus (HPV); assay: Comparative tests: cervical lesions caused by HPV, 44 female patients, observation after 10 days; type: in vivo; settings: undiluted composition
Method: The hereunder mentioned comparative tests are aimed to establish observation(s) after 10 days on 44 female human patients by Controlled Clinical Trial on Cervical Lesions (wounds) caused by the Human Papilloma Virus (HPV) which is a double stranded DNA non enveloped virus. […] In order to establish the non-activity of possible placebo's to be used in the clinical trial, 44 HPV infected patients were treated with a one-time dose of Placebos compositions.

[4] = system: ES strain of lymphomatosis virus; settings: US 3,429,971 table 2; cited from earlier work

Row | Compound | antiviral activity [1] | also measured
1 | CC12CCC(C1)C(C)(C)C2=O (stereo not shown) [fenchone] | No activity | –
2 | CC(C)[C@]12CC(=O)[C@H](C)[C@H]1C2 [alpha-thujone] | No activity | –
3 | C=C(C)C1CC=C(C)C(=O)C1 (stereo not shown) [carvone] | No activity | antiviral activity against adenovirus type 6 [2]: antiviral activity
4 | C=CC(=C)CCC=C(C)C [beta-myrcene] | No activity | –
5 | C=C1CC/C=C(\C)CC[C@@H]2[C@@H]1CC2(C)C [beta-caryophylene] | No activity | –
6 | C=C(C)[C@H](CO)CC=C(C)C [Placebo 21, Lavendulol] | – | Observation(s) after 10 days: regression of lesions on the surface of the cervix [3]: No regression of lesions
7 | CC(C)=CCC/C(C)=C/CO [Trans-2,6-dimethyl-2,6,octadiene-8-ol, (2E)-3,7-dimethylocta-2,6-dien-1-ol] | – | No. cures [4]: 0
8 | (cis+trans)-1,2-(+)-Limonene oxide [Placebo 18] | – | Observation(s) after 10 days: regression of lesions on the surface of the cervix [3]: No regression of lesions
9 | CC(C)=CCCC(C)=CCCC(C)=CCO [farnesol] | No activity | –
10 | (R)-Carvone + (S)-Carvone [Placebo 3] | – | Observation(s) after 10 days: regression of lesions on the surface of the cervix [3]: No regression of lesions
11 | CC(C)=CCC/C(C)=C/CO [geraniol] | No activity | –
12 | CC12CCC(CC1)C(C)(C)O2 [cineole] | No activity | –
